Results on three molecules are retold here after ChEMBL document CHEMBL1122397, “Synthesis and pharmacological characterization of (+/-)-5,9 alpha-dimethyl-2-[2-(4-fluorophenyl)ethyl]-2'-hydroxy-6,7-benzomorphan (fluorophen), a ligand suitable for visualization of opiate receptors in vivo” (J Med Chem, 1983).

Test [1] deals with Opioid receptor (Rattus norvegicus, UniProt P33533+P34975+P33535). Kind of test: (§1) Ability to displace 50% of (+/-) ethylketocyclazocine (2.8) in rat brain homogenate. The format is tissue-based.
The species named for test [2] is Rattus norvegicus. Kind of test: Relative potency in displacing ((+/-) ethylketocyclazocine (2.8)) in rat brain homogenate.
Test [3] is filed under the species Rattus norvegicus. Kind of test: Relative potency in displacing (-) naloxone(1.0) in rat brain homogenate.
Test [4] is filed under the species Rattus norvegicus. Description: Ability to displace 50% of [3H]- labeled DADLE in rat brain homogenate.
For test [5], the target named is Mu-type opioid receptor (Cavia porcellus) (UniProt P97266). Kind of test: Relative potency to induce 50% of maximal effect in guinea pig ileum expressing Opioid receptor mu 1. Format: tissue-based.
Sequence of Mu-type opioid receptor (Cavia porcellus) (P97266 whole entry): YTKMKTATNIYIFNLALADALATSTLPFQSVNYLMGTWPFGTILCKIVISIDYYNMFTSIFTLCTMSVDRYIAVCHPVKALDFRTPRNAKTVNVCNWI
The species entered for test [6] is Rattus norvegicus. The description is as §1.
The target of test [7] is T1, Kappa-type opioid receptor (Homo sapiens, UniProt P41145). Description: Ability to induce 50% of maximal effect in rabbit vas deferens expressing Opioid receptor kappa 1. Format: tissue-based, Oryctolagus cuniculus.
T1 sequence (P41145 whole entry): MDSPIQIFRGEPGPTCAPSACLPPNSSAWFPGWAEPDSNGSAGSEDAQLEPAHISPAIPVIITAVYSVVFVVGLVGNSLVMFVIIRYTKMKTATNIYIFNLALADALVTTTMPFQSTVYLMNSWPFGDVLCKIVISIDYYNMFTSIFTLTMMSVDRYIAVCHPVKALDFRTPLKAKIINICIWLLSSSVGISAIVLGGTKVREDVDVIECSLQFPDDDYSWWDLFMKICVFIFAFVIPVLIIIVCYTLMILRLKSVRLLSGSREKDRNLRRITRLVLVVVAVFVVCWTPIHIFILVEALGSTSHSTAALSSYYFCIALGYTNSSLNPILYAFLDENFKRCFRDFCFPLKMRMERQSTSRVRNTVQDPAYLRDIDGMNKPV
Test [8] deals with Mu-type opioid receptor (Cavia porcellus, UniProt P97266). Description: Ability to induce 50% of maximal effect in guinea pig ileum expressing Opioid receptor mu 1. The format is tissue-based.
Sequence of Mu-type opioid receptor (P97266 whole entry): as the sequence (P97266 whole entry) above
Test [9] concerns the target Delta-type opioid receptor (Mus musculus) (UniProt P32300). Kind of test: Relative potency to induce 50% of maximal effect in mouse vas deferens expressing Opioid receptor delta 1.
Test [10] addresses T1, Kappa-type opioid receptor. Description: Relative potency to induce 50% of maximal effect in rabbit vas deferens expressing Opioid receptor kappa 1. To be noted: Oryctolagus cuniculus.
The species entered for test [11] is Rattus norvegicus. Kind of test: Ability to displace 50% of (-) naloxone(1.0) in rat brain homogenate.
The species named for test [12] is Rattus norvegicus. Description: Relative potency in displacing [3H]- labeled DADLE in rat brain homogenate.
Test [13] is filed under the species Mus musculus. Kind of test: cells. The settings on record: Rattus norvegicus, Brain, 3 h.

Each structure is given as a SMILES string.

As usually defined, the IC50 is the concentration that gives 50% inhibition. A lower IC50 goes with greater potency.

Sequence of Delta-type opioid receptor (Mus musculus) (P32300 whole entry, looked up): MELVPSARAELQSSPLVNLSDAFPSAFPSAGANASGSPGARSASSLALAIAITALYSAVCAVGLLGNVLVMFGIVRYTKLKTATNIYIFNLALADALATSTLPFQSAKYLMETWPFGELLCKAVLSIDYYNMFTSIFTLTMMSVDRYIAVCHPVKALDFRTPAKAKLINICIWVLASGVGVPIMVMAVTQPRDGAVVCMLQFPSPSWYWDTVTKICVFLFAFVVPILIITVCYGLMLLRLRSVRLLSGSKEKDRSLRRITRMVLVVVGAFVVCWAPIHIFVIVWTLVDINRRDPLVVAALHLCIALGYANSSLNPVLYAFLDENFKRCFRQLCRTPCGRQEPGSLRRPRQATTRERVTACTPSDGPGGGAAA

`CC[C@@]12CCN(CC3CC3)C(C(=O)c3ccc(O)cc31)[C@@H]2C` [ETHYLKETOCYCLAZOCINE] gave an IC50 in test [1] of 8.4 nM.
Take `CC1C2Cc3ccc(O)cc3C1(C)CCN2CCc1ccccc1` (stereo not drawn) [PHENAZOCINE]: the Relative Potency in test [2] amounted to 0.13; in test [3] it was 2.4; in [5], 7.9; in test [9], 1.2; in [10], 0.4; in test [12], 0.42. For the same molecule, the IC50 in [4] turned out to be 26 nM; in test [6] it was 65 nM; in test [7], 121 nM; in [8], 9.8 nM; in test [11], 82 nM.
Turning to `CC(C)C[C@H](NC(=O)[C@H](Cc1ccccc1)NC(=O)CNC(=O)CNC(=O)[C@@H](N)Cc1ccc(O)cc1)C(=O)O` [ENKEPHALIN], in test [13], inhibition was half-maximal at 11 nM (IC50).
